Measured values published in patent US20110124523A1, “High Throughput Method for Detecting Apoptosis of Embryonic Stages of Metazoan Helminthic Parasites” (INSTITUTE OF LIFE SCIENCES, priority 2009, published 2011).
Values joined by “and” are separate entries in the source; they are usually repeats but may differ in a detail not shown here. Identical values can stand only once.

Legend:
[1] = test system: embryonic stages of S. digitata; experiment: Presence of cytochrome-c in the cytoplasm, anti cytochrome c-FITC staining; assay type: cell-based, Setaria digitata; details: 24 hr
Description: (§1) Adult female filarial worms Setaria digitata were collected from the peritoneum of cattle, slaughtered at a nearby abattoir in sterile Hanks Balanced Salt Solution (HBSS) medium (Sigma H 2387-1L) and transported to the laboratory in a sterile container. The medium containing 1% glucose (Sigma G 7528), Penicillin 100 units/ml, Streptomycin 100 μg/ml (Sigma P 4333). And Amphotericin-B 0.25 μg/ml (Sigma A 2942) was buffered with NaHCO3 (Sigma S 5761). About 5 to 7 worms were taken in a petridish, washed three times in medium, dissected into small pieces in 10 ml of medium under sterile conditions and incubated at 37° C. for 30 minutes to allow the release of embryonic stages (eggs and microfilariae) into the medium. The embryonic stages were harvested into sterile 15 ml. centrifuge tubes and washed three times by centrifuging at 300 g for 10 minutes each with medium and the final pellet was suspended in 1 ml. of RPMI-1640 medium (Sigma R 8005) supplemented with 10% FBS (Sigma F 2442) The number of embryonic stages of S. digitata in the above preparation were counted using light microscope, and the suspension was taken in RPMI-1640 medium containing 10% FBS at 1×10^5 embryonic stages/ml. One ml. each was dispensed into individual wells of a 24 well tissue culture plate. One set of wells was taken as untreated control containing only medium with 10% FBS. […] Motility of the Mf was scored under an inverted microscope. After appropriate treatment and incubation, each set of the cultured embryonic stages of S. digitata were harvested from the 24 well tissue culture plate separately in 15 ml. sterile centrifuge tubes, washed with PBS twice and stained as per requirement following manufacturer's instructions as described below. This was followed by two times washing with PBS and final suspension of the stained embryonic stages was taken in 0.5 ml of sheath fluid (BD Biosciences 342003) before their acquisition in the flow cytometer (BD FACS Calibur, Becten and Dickinson, USA). Analysis was performed on 10,000-acquired events depicted as Dot Plots and Histogram Plots using Cellquest Pro soft ware. All plots were representative of at least 3 experiments. […] After in vitro culture for 24 hours with apoptosis inducing reagents the embryonic stages were harvested in 15 ml. sterile centrifuge tubes and fixed for 60 minutes at 0° C. in 1% paraformaldehyde (Sigma P 6148) in PBS. The suspension was washed first with PBS and then with 1× permeabilisation buffer (eBioscience 00-8333-56) and finally resuspended in 100 μl of 1× permeabilisation buffer at 1×10^5 embryonic stages per ml. This suspension was then incubated for 45 minutes with 20 μl of anti cytochrome c-FITC (eBioscience 11-6601-82). This was followed by washing with PBS twice and analysis by Flow cytometer.

[2] = test system: embryonic stages of S. digitata; experiment: Intra cellular activation of caspase-3 like cysteine proteinases, anti active caspase-3-PE staining; assay type: cell-based, Setaria digitata; details: 24 hr
Description: as §1, with “active caspase-3-PE (BD Biosciences 559762).” for “cytochrome c-FITC (eBioscience 11-6601-82).”

| SMILES | GMI (Geometric Mean Intensity) of Fluorescence, Cyt-c Staining ([1]; Eggs, 10 μM) | GMI (Geometric Mean Intensity) of Fluorescence, Cyt-c Staining ([1]; Microfilariae, 10 μM) | GMI (Geometric Mean Intensity) of Fluorescence, Caspase-3 Activation ([2]; Eggs, 10 μM) | GMI (Geometric Mean Intensity) of Fluorescence, Caspase-3 Activation ([2]; Microfilariae, 10 μM) | GMI (Geometric Mean Intensity) of Fluorescence, Cyt-c Staining ([1]; Eggs, 1 μM) | GMI (Geometric Mean Intensity) of Fluorescence, Cyt-c Staining ([1]; Microfilariae, 1 μM) | GMI (Geometric Mean Intensity) of Fluorescence, Caspase-3 Activation ([2]; Eggs, 1 μM) | GMI (Geometric Mean Intensity) of Fluorescence, Caspase-3 Activation ([2]; Microfilariae, 1 μM) |
| --- | --- | --- | --- | --- | --- | --- | --- | --- |
| OO [H2O2] | 62.37 and 67.72 and 65.39 | 7.53 and 9.23 and 8.14 | 56.95 and 61.37 and 60.20 | 7.57 and 9.69 and 12.34 |  |  |  |  |
| CC1=CC(=O)c2c(O)cccc2C1=O [Plumbagin] | 70.29 and 76.25 and 71.32 | 18.69 and 20.32 and 17.56 | 82.35 and 87.32 and 80.16 | 10.57 and 11.22 and 14.16 |  |  |  |  |
| CN[C@@H]1C[C@H]2O[C@@](C)([C@@H]1OC)n1c3ccccc3c3c4c(c5c6ccccc6n2c5c31)C(=O)NC4 [Staurosporine] |  |  |  |  | 54.33 and 61.66 and 57.27 | 6.02 and 4.20 | 50.13 and 54.95 and 50.97 | 6.20 and 6.72 |
